Experimental findings from BindingDB's records for doi:10.7270/Q2TX3CTT (Broad Institute, 2010) are described below.

pEC50: −log10 of the molar value.

For this test, the target named is Glycogen synthase kinase-3 beta (Homo sapiens, UniProt P49841). Kind of test: GSK3beta kinase inhibitor potency, dose response, biochemical, luminescence, cell-free homogeneous, retest (AID 434954).
Glycogen synthase kinase-3 beta, sequence (P49841 whole entry): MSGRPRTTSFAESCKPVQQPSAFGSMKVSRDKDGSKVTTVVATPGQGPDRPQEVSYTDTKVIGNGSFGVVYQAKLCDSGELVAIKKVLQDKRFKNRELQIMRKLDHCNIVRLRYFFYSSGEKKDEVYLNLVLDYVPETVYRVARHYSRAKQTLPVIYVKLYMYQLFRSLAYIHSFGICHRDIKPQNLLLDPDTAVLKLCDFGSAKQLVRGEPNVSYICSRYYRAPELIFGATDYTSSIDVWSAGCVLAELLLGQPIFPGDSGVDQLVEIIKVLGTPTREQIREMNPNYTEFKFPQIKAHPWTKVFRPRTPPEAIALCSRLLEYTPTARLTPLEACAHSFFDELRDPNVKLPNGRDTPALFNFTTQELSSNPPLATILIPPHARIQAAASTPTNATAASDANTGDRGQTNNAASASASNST
`CCC(=O)Nc1sc2c(c1C(N)=O)CCN(C(C)=O)C2` [6-acetyl-2-(1-oxopropylamino)-5,7-dihydro-4H-thieno[2,3-c]pyridine-3-carboxamide] had a pEC50 of 4.86. Under `COc1ccccc1Nc1nc(N(C)c2ccccc2)nc(N)c1[N+](=O)[O-]` [SMR000542836] stands under 3.52; under `O=NCc1cn(-c2ccccc2)nc1-c1cccnc1` [N-[(1-phenyl-3-pyridin-3-ylpyrazol-4-yl)methylidene]hydroxylamine], 5.19. With `Cc1ccc2nc(-c3ccc4c(c3)NC(=O)CO4)cn2c1` [6-(6-methyl-2-imidazo[1,2-a]pyridinyl)-4H-1,4-benzoxazin-3-one] the figure was under 3.52; with `Cc1nc(N2CCOCC2)nc(N2CCCCC2C)c1[N+](=O)[O-]` (centres undefined) [MLS001012395], under 3.52. With `NC(=O)c1ncn([C@@H]2O[C@H](CO)[C@@H](O)[C@H]2O)c1O` [1-[(2R,3R,4S,5R)-5-(hydroxymethyl)-3,4-bis(oxidanyl)oxolan-2-yl]-5-oxidanyl-imidazole-4-carboxamide] the figure was under 3.52; with `Cc1ccc(Nc2nc(N)c([N+](=O)[O-])c(NCCO)n2)cc1` [MLS000333433], 4.10.

The molecule `CC(=O)Nc1cc(-c2ccc(Cl)cc2)n[nH]1` [N-[5-(4-chlorophenyl)-1H-pyrazol-3-yl]acetamide] gave a pEC50 of 4.62.

With `CCCn1c(SCC(=O)N2CCCCC2)nnc1-c1ccccn1` [1-piperidin-1-yl-2-[(4-propyl-5-pyridin-2-yl-1,2,4-triazol-3-yl)sulfanyl]ethanone], the negative logarithm of the EC50 (pEC50) is under 3.52. Under `O=C1CCCC2=Nc3nc(SCc4ccccc4)nn3C(c3cccs3)C12` (centres undefined) [2-(phenylmethylthio)-9-thiophen-2-yl-5,6,7,9-tetrahydro-1H-[1,2,4]triazolo[5,1-b]quinazolin-8-one] stands under 3.52. The molecule `CC1CCCCN1c1ncnc2ccccc12` (centres undefined) [4-(2-Methyl-piperidin-1-yl)-quinazoline] gave a negative logarithm of the EC50 (pEC50) of under 3.52. With `CC[n+]1c(CC=Nc2ccccc2)sc2ccccc21`, the pEC50 is under 3.52. Regarding `O=C(Nc1ccccn1)Nc1cccs1` [MLS000093554], the pEC50 is under 3.52.

Consider `Oc1ccc(CN=Nc2ccc(C(F)(F)F)cn2)cc1O` [(4Z)-2-hydroxy-4-[[2-[5-(trifluoromethyl)pyridin-2-yl]hydrazinyl]methylidene]cyclohexa-2,5-dien-1-one], for which the negative logarithm of the EC50 (pEC50) is 4.79. Under `COc1ccc(COC(=O)c2cccc(S(=O)(=O)N3CCN(C(C)=O)CC3)c2)cc1` [(4-methoxyphenyl)methyl 3-(4-acetylpiperazin-1-yl)sulfonylbenzoate] stands under 3.52; under `Cc1ccc(C(C(=O)NC2CCCCC2)N(CC2CCCO2)C(=O)CNC(=O)c2cccs2)cc1` (centres undefined) [N-[2-[[2-(cyclohexylamino)-1-(4-methylphenyl)-2-oxoethyl]-(oxolan-2-ylmethyl)amino]-2-oxoethyl]thiophene-2-carboxamide], under 3.52.

In the case of `O=c1cc(-c2ccncc2)oc2ccccc12` [2-(4-pyridyl)chromone], the pEC50 was 4.75.

`Cc1nn(CC(=O)NCCCN2CCCCC2)c(=O)c2cc(-c3ccccc3)nn12` [SMR000631197]: the pEC50 was under 3.52.

Take `N#CC1=C2SCN(Cc3ccccc3)CN2C(=O)CC1c1cccs1` (centres undefined): the pEC50 is 5.10. Under `Fc1ccccc1CNc1nc(-c2cccnc2)nc2ccccc12` [N-[(2-fluorophenyl)methyl]-2-pyridin-3-ylquinazolin-4-amine] stands under 3.52; under `O=c1cc(-c2ccccc2Cl)oc2c(NS(=O)(=O)c3ccccc3C(F)(F)F)ccc(O)c12`, under 3.52; under `O=C(Nc1ccsc1C(=O)NC1CC1)c1ccccc1` [MLS000546913], 5.00. `NC(=O)COC(=O)c1ccc(-c2ccc(O)cc2)cc1` had a pEC50 of under 3.52. Under `O=C(O)c1ccccc1NCc1ccncc1` [SMR000031483] stands under 3.52; under `COc1ccc(-c2cc(-c3ccco3)nc(O)c2C#N)cc1` [6-(furan-2-yl)-4-(4-methoxyphenyl)-2-oxidanylidene-1H-pyridine-3-carbonitrile], under 3.52; under `COc1ccc(OC)c(C2Nc3ccccc3N=C3CC(C)(C)CC(=O)C32)c1` (centres undefined) [SMR000515998], under 3.52. With `Cc1nc(Nc2ccccc2)sc1C(=O)c1ccc(F)cc1` [SMR000567585] the figure was under 3.52; with `Cc1ccc(Nc2nc(NCC3CCCO3)nc(N)c2[N+](=O)[O-])cc1` (centres undefined), 5.31; with `CCN(CC)CCCNc1nc(N)c([N+](=O)[O-])c(NCCO)n1` [SMR000436737], under 3.52.

Regarding `CCCN(CCC)Cc1c(C(=O)NN=Cc2c[nH]c3ccccc23)nnn1-c1nonc1N`, the pEC50 was under 3.52. As for `COC(=O)Cc1ccc2sc(-c3ccccc3)nc2c1` [(2-Phenyl-benzothiazol-5-yl)-acetic acid methyl ester], the negative-log EC50 (pEC50) is under 3.52. `Nc1ncnc(NC2CCS(=O)(=O)C2)c1[N+](=O)[O-]` (centres undefined) [4-N-(1,1-dioxothiolan-3-yl)-5-nitropyrimidine-4,6-diamine] gave a pEC50 of under 3.52. `CCCC1=Nc2ncnn2C(c2cccs2)C1C(=O)OCC` (centres undefined) [5-propyl-7-thiophen-2-yl-1,7-dihydro-[1,2,4]triazolo[1,5-a]pyrimidine-6-carboxylic acid ethyl ester] had a pEC50 of 4.64. With `CC1(C)CC(=O)C=C(Nc2ccc(F)cc2F)C1` the figure was under 3.52; with `c1ccc2c(c1)OCC(CNCC1COc3ccccc3O1)O2` (centres undefined) [1-(2,3-dihydro-1,4-benzodioxin-3-yl)-N-(2,3-dihydro-1,4-benzodioxin-3-ylmethyl)methanamine], under 3.52; with `COc1cccc(C(=O)N/N=C/c2ccc(Oc3ccc([N+](=O)[O-])cn3)c(OC)c2)c1` [3-methoxy-N-[[3-methoxy-4-(5-nitropyridin-2-yl)oxyphenyl]methylideneamino]benzamide], under 3.52. Under `Cc1occc1C(=O)N1CCN(C(=O)C2CCCO2)CC1` (centres undefined) [1-(2-methyl-3-furoyl)-4-(tetrahydro-2-furanylcarbonyl)piperazine] stands under 3.52; under `O=C1/C(=C/C=C/c2ccccc2)Oc2c1ccc(O)c2CN1CCN(CCO)CC1` [SMR000415785], under 3.52. Under `CSc1nc2c(c(=O)[nH]1)C(c1ccccc1)C1C(=O)CC(C)(C)CC1=N2` (centres undefined) [8,8-dimethyl-2-(methylthio)-5-phenyl-5,8,9,10-tetrahydropyrimido[4,5-b]quinoline-4,6(3H,7H)-dione] stands under 3.52; under `Cc1cc(-c2n[nH]c3c2C(c2cccc(O)c2)C(C#N)C(=N)O3)c(C)s1` (centres undefined) [SMR000136653], 4.59. Consider `CCOc1ccc(N2C(=O)C(=Nc3ccccc3O)C(Cl)C2=O)cc1` (centres undefined) [SMR000124402], for which the pEC50 was under 3.52. `COc1ccc(-c2csc(N3CCOCC3)n2)cc1OC` gave a negative-log EC50 (pEC50) of under 3.52. Under `O=c1c(O)c(-c2ccc(O)cc2)oc2cc(O)cc(O)c12` stands 4.94; under `CC(C)N1CCc2c(sc(NC(=O)CN3C(=O)c4ccccc4C3=O)c2C(N)=O)C1`, under 3.52; under `CC(C)Nc1nc(-c2ccncc2)nc(-c2ccccc2)c1C#N` [SMR000549424], under 3.52. Under `NNC(=O)CNC(=O)c1ccc(F)cc1` stands under 3.52; under `O=C(NCCN1C(=O)S/C(=C\c2ccc(Cl)c(Cl)c2)C1=O)C1COc2ccccc2O1` (centres undefined) [SMR000254587], under 3.52; under `Nc1nonc1-n1nnc(C(=O)NN=Cc2cccc(Cl)c2)c1CN1CCCCCC1` [MLS000950585], 5.40.

As to `CC1=C(C(=O)N2CCCCC2)C(c2cccs2)C2C(=O)CCCC2=N1` (centres undefined) [2-methyl-3-piperidin-1-ylcarbonyl-4-thiophen-2-yl-4,6,7,8-tetrahydro-1H-quinolin-5-one], the pEC50 was under 3.52. Under `CCC(=O)c1c(CC)c2n3c1CC[C@H]3CCC2` [SMR000469597] stands under 3.52; under `Cc1ccc(C(=O)N/N=C/c2ccc(-c3ccc([N+](=O)[O-])cc3)o2)cn1` [SMR000431371], under 3.52; under `CCOC(=O)/C(C#N)=C/c1cn(CCC(=O)O)nc1-c1cccc(Cl)c1` [3-[3-(3-chlorophenyl)-4-[(E)-2-cyano-3-ethoxy-3-oxidanylidene-prop-1-enyl]pyrazol-1-yl]propanoic acid], under 3.52. Under `O=C(CN1C(=O)CCC1=O)Nc1cccc2c1C(=O)NC2=O` [MLS000703473] stands 5.63; under `Nc1nc(Nc2ccccc2)nc(NCCO)c1[N+](=O)[O-]` [2-(6-Amino-5-nitro-2-phenylamino-pyrimidin-4-ylamino)-ethanol], 5.24.

Regarding `CC(=O)Nc1nnc(CSCc2ccc(F)cc2)s1` [N-[5-[(4-fluorophenyl)methylsulfanylmethyl]-1,3,4-thiadiazol-2-yl]acetamide], the negative-log EC50 (pEC50) was under 3.52.

Consider `Cc1nn(-c2ccccc2)c(Cl)c1C(=O)NCc1cccs1` [MLS000394567], for which the pEC50 was under 3.52. Under `CN1CCN(c2cc([N+](=O)[O-])ccc2Cl)CC1` stands under 3.52. Under `COc1cccc2cc(CC(=O)c3ccc(C)cc3C)c(=O)oc12` [3-[2-(2,4-dimethylphenyl)-2-oxoethyl]-8-methoxychromen-2-one] stands under 3.52. Under `Nc1nonc1-n1nnc(C(=O)NN=Cc2ccc(OCc3ccccc3F)cc2)c1CN1CCCCC1` [SMR000646487] stands under 3.52; under `O=[N+]([O-])c1cc(-c2nc(-c3ccncc3)no2)ccc1Cl` [MLS000331762], under 3.52. `CNc1nc(N)c([N+](=O)[O-])c(Nc2ccccc2OC)n1` [N4-(2-methoxyphenyl)-N2-methyl-5-nitro-pyrimidine-2,4,6-triamine] had a pEC50 of 5.46.

With `COc1ccc(-c2nn(-c3ccccc3)cc2CN=O)cc1` [3-(4-methoxyphenyl)-1-phenyl-4-pyrazolecarboxaldehyde oxime], the negative logarithm of the EC50 (pEC50) was 6.36.

`COCCn1c(SCC(=O)Nc2ccc(Cl)cn2)nnc1-c1ccncc1` [N-(5-chloranylpyridin-2-yl)-2-[[4-(2-methoxyethyl)-5-pyridin-4-yl-1,2,4-triazol-3-yl]sulfanyl]ethanamide]: the pEC50 is 4.31.

Regarding `Cc1ccnc(NC(=O)c2ccc([N+](=O)[O-])s2)c1` [N-(4-methylpyridin-2-yl)-5-nitro-thiophene-2-carboxamide], the pEC50 was under 3.52.

In general, pEC50 refers to −log10 of the EC50, conventionally taken in molar units. Low readings indicate a large EC50, high ones a small EC50.
